Laboratory results: patent publication US10538490B2, “Benzylaminopyridylcyclopropanecarboxylic acids, pharmaceutical compositions and uses thereof” (Boehringer Ingelheim International GmbH, priority 2016, dated 2020)

Target: human GPR40 receptor (Homo sapiens, UniProt O14842)
Assay: IP1 accumulation measurements using the IPOne assay system
Assay type: cell-based
Settings: 1321N1 cells stably expressing human GPR40 receptor, stimulation 1 h at 37° C.
Description: IP1 accumulation measurements using the IPOne assay system—1321N1 cells stably expressing human GPR40 receptor (Euroscreen, Belgium) are seeded 24 h before the assay in white 384-well plates in culture medium containing 10% FCS, 1% Na-Pyruvate and 400 μg/mL G418. IPi is assayed according to the manufacturer's description (Cisbio Bioassays, France). In brief, the assay is started by substitution of the culture medium by stimulation buffer (Hepes 10 mM, CaCl2 1 mM, MgCl2 0.5 mM, KCl 4.2 mM, NaCl 146 mM, glucose 5.5 mM and LiCl 50 mM, pH 7.4). Cells are stimulated for 1 h at 37° C., 5% CO2 by addition of the compounds that are diluted in stimulation buffer containing LiCl. Assays are stopped by adding HTRF-conjugates (IP1-d2 and Anti-IP1 cryptate Tb) and lysis buffer, provided by the manufacturer. After an incubation time of 1 h at room temperature plates are measured using an EnVision™, Perkin Elmer. The obtained fluorescence ratios at 665/615 […] are then used to calculate the pEC50 values using Assay Explorer 3.3 Software (Accelrys, Inc.) by interpolation using an IP1 reference curve and subsequent sigmoidal curve fitting allowing for a variable hill slope.

Sequence of human GPR40 receptor (O14842 whole entry): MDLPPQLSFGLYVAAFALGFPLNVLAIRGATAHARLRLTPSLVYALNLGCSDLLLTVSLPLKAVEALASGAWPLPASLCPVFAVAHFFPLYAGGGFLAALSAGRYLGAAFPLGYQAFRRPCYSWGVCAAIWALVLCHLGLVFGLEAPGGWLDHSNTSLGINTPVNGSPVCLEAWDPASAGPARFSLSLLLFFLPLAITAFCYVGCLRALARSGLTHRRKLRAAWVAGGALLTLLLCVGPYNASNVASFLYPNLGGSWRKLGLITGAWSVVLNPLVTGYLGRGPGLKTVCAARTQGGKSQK

Row | EC50 [nM] | SMILES
1 | > 10000 | NCc1ccc(F)c(-c2cc(CNc3ccc([C@H]4C[C@@H]4C(=O)O)cn3)c(F)cc2F)c1 [Example 3, (1S,2S)-2-{6-[(5′-Aminomethyl-4,6,2′-trifluoro-biphenyl-3-ylmethyl)-amino]-pyridin-3-yl}-cyclopropanecarboxylic Acid]
2 | 38 | O=C(O)[C@H]1C[C@@H]1c1ccc(NCc2ccc(C(F)(F)F)c(-c3ccc(OC(F)(F)F)cc3)c2)nc1 [Example 6, (1S,2S)-2-{6-[(4′-Trifluoromethoxy-6-trifluoromethyl-biphenyl-3-ylmethyl)-amino]-pyridin-3-yl}-cyclopropanecarboxylic Acid]
3 | 50 | Cc1cc(OCCCS(C)(=O)=O)cc(C)c1-c1cccc(CNc2ccc([C@H]3C[C@@H]3C(=O)O)cn2)c1 [Example 8, (1S,2S)-2-(6-{[4′-(3-Methanesulfonyl-propoxy)-2′,6′-dimethyl-biphenyl-3-ylmethyl]-amino}-pyridin-3-yl)-cyclopropanecarboxylic Acid]
4 | 21 | Cc1cc(-c2cnccn2)cc(C)c1-c1ccc(F)c(CNc2ccc([C@H]3C[C@@H]3C(=O)O)cn2)c1 [Example 11]
5 | > 10000 | Cc1cc(OCCCS(C)(=O)=O)cc(C)c1-c1ccc(F)c(CNc2ccc([C@H]3C[C@@H]3C(=O)O)cn2)c1 [Example 12]
6 | 17 | Cc1cc(-c2ccc(=O)n(C)c2)cc(C)c1-c1ccc(F)c(CNc2ccc([C@H]3C[C@@H]3C(=O)O)cn2)c1 [Example 13]
7 | 11 | Cc1cc(-c2nnn(CC(C)(C)O)n2)cc(C)c1-c1ccc(F)c(CNc2ccc([C@H]3C[C@@H]3C(=O)O)cn2)c1 [Example 14]
8 | 64 | Cc1cc(OCC2(O)CCSCC2)cc(C)c1-c1ccc(F)c(CNc2ccc([C@H]3C[C@@H]3C(=O)O)cn2)c1 [Example 16]
9 | 353 | Cc1cc(OCC(=O)O)cc(C)c1-c1ccc(F)c(CNc2ccc([C@H]3C[C@@H]3C(=O)O)cn2)c1 [Example 17]
10 | 2100 | COc1cc(F)c(-c2ccc(F)c(CNc3ccc([C@H]4C[C@@H]4C(=O)O)cn3)c2)c(F)c1 [Example 19]
11 | 2300 | O=C(O)[C@H]1C[C@@H]1c1ccc(NCc2cc(-c3c(F)cccc3F)ccc2F)nc1 [Example 20]
12 | 834 | O=C(O)[C@H]1C[C@@H]1c1ccc(NCc2cc(-c3c(C(F)(F)F)cccc3C(F)(F)F)ccc2F)nc1 [Example 21]
13 | 477 | COc1c(F)c(F)c(-c2ccc(F)c(CNc3ccc([C@H]4C[C@@H]4C(=O)O)cn3)c2)c(F)c1F [Example 22]
14 | > 10000 | N#Cc1cccc(C#N)c1-c1ccc(F)c(CNc2ccc([C@H]3C[C@@H]3C(=O)O)cn2)c1 [Example 23]
15 | 204 | O=C(O)[C@H]1C[C@@H]1c1ccc(NCc2cc(-c3ccccc3C(F)(F)F)ccc2F)nc1 [Example 24]
16 | > 10000 | Cc1cc(C(=O)O)cc(C)c1-c1ccc(F)c(CNc2ccc([C@H]3C[C@@H]3C(=O)O)cn2)c1 [Example 27]
17 | 6720 | Nc1cc(F)c(-c2ccc(F)c(CNc3ccc([C@H]4C[C@@H]4C(=O)O)cn3)c2)c(F)c1 [Example 28]
18 | 570 | O=C(O)[C@H]1C[C@@H]1c1ccc(NCc2cc(-c3c(F)cc(OC4CC4)cc3F)ccc2F)nc1 [Example 29]
19 | 105 | O=C(O)[C@H]1C[C@@H]1c1ccc(NCc2cc(-c3c(Cl)cccc3Cl)ccc2F)nc1 [Example 31]
20 | 1940 | N#CC1(c2ccccc2-c2ccc(F)c(CNc3ccc([C@H]4C[C@@H]4C(=O)O)cn3)c2)CC1 [Example 32]
21 | 128 | COc1cc(OC)c(Cl)c(-c2ccc(F)c(CNc3ccc([C@H]4C[C@@H]4C(=O)O)cn3)c2)c1Cl [Example 33]
22 | 612 | Cc1cc(C(N)=O)cc(C)c1-c1ccc(F)c(CNc2ccc([C@H]3C[C@@H]3C(=O)O)cn2)c1 [Example 34]

Row | SMILES | EC50 [nM]
23 | Cc1cc(OCCC(C)(C)O)cc(C)c1-c1cc(CNc2ccc([C@H]3C[C@@H]3C(=O)O)cn2)ccc1C(F)(F)F [Example 5, (1S,2S)-2-(6-{[4′-(3-Hydroxy-3-methyl-butoxy)-2′,6′-dimethyl-6-trifluoromethyl-biphenyl-3-ylmethyl]-amino}-pyridin-3-yl)-cyclopropanecarboxylic Acid] | 12
